In article PMC5372361 (Scientific Reports, 2017):
Where two headings read alike, the source gives them in different places.

Tests used:
[1] = biological target: T1, porcine liver CaE (Sus scrofa, UniProt Q29550); experiment: In vitro CaE inhibition (4-nitrophenyl acetate hydrolysis); assay type: biochemical; details: for inhibition at 20 µM: 20 μM of compound
T1 sequence (Q29550 19-566): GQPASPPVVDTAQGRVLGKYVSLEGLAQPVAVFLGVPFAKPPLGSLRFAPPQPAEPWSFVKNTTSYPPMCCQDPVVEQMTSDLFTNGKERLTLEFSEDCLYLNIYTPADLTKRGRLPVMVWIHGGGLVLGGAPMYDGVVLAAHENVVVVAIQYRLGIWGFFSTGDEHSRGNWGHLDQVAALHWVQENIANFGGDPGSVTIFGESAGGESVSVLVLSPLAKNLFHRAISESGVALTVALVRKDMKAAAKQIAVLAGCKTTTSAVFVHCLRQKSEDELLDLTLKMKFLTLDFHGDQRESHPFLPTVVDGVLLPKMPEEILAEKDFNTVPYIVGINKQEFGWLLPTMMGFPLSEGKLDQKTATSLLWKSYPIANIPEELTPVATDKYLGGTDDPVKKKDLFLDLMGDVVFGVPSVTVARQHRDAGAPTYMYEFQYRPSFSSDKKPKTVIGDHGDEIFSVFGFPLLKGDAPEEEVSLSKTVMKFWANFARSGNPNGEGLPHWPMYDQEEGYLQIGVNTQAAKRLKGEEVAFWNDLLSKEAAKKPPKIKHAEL
Description: Acetylcholinesterase (AChE, EC 3.1.1.7, from human erythrocyte), butyrylcholinesterase (BChE, EC 3.1.1.8, from equine serum), carboxylesterase (CaE, EC 3.1.1.1, from porcine liver), acetylthiocholine iodide (ATCh), butylthiocholine iodide (BTCh), 5,5′-dithiobis-(2-nitrobenzoic acid) (DTNB), and 4-nitrophenol acetate (4-NPA), were purchased from Sigma-Aldrich (Germany).
The activity of CaE was determined spectrophotometrically by the release of 4-nitrophenol at 405 nm[76]. The assay solution consisted of 0.1 M K/Na phosphate buffer (pH 8.0, 25 °C) with the addition of 1 mM 4-nitrophenyl acetate and 0.02 unit/mL of CaE. The assays were carried out with a blank containing all components except CaE.
The test compounds were dissolved in DMSO; the incubation mixture contained 2% of the solvent. […] The test compounds were added to the assay solution and pre-incubated at 25 °C with the enzymes for 10 min followed by the addition of the substrate. A parallel control was made for the assay solution with no inhibitor. […] Each experiment was performed in triplicate. The results were expressed as the mean ± SEM. The reaction rates in the presence and absence of inhibitor were compared, and the percentage of residual enzyme activity due to the presence of test compounds was calculated.

[2] = biological target: T2, MK-801 binding (intrachannel) site of NMDA receptor (Rattus norvegicus, UniProt P35439); experiment: Radioligand binding, competition with [3H]MK-801; details: rat hippocampal membranes
T2 construct: we used a membrane preparation of rat cerebral hippocampus; from tissue; host or cells: rat hippocampal membranes
Description: (§1) Two radioactive ligands were used: [^3H]
(§2) The obtained membrane pellet was resuspended in a work buffer (5 mM HEPES/4.5 mM Tris buffer, pH 7.6) in a ratio of 1:5 and stored in liquid nitrogen. The reaction mixture (the final volume of 0.5 ml) contained 200 μl of the working buffer, 50 μl of 50 nM radioligand solution, and 250 μl of the membrane suspension. Nonspecific binding was determined in the presence of 50 μl of 1 mM of unlabeled ligand.
(§3) For binding study, the reaction mixture was incubated at room temperature for 2 hours. After incubation, the samples were filtered through GF/B glass-fiber filters (Whatman), washed with the work buffer, dried, and transferred to scintillation vials to which 5 ml of scintillation fluid was added containing 4 g of diphenyloxazole (PPO), 0.2 g of diphenyloxazoil benzene (POPOP), and 1 liter of toluene.
(§4) The effect of the test compounds on the binding of [^3H]

[3] = biological target: T3, equine serum BChE (Equus caballus, UniProt P81908); experiment: biochemical; details: for inhibition at 20 µM: read-out: inhibition % at 20 μM, BChE
T3 construct: We used human erythrocyte AChE, equine serum BChE, and porcine liver CaE; purchased Sigma-Aldrich (Germany); host or cells: equine serum
Description: (§5) The AChE and BChE activities were measured by the method of Ellman and co-workers as described earlier[75]. The assay solution consisted of 0.1 M K/Na phosphate buffer (pH 7.5, 25 °C) with the addition of 0.33 mM DTNB, 0.02 unit/mL of AChE or BChE, and 1 mM of substrate (ATCh or BTCh, respectively). The assays were carried out with a blank containing all components except ATCh and BTCh in order to take account of a non-enzymatic reaction.
(§6) The test compounds were dissolved in DMSO; the incubation mixture contained 2% of the solvent. […] The test compounds were added to the assay solution and pre-incubated at 25 °C with the enzymes for 10 min followed by the addition of the substrate. A parallel control was made for the assay solution with no inhibitor. Measurements were performed in a FLUOStar OPTIMA multifunctional reader (BMG Labtech, Germany). Each experiment was performed in triplicate. The results were expressed as the mean ± SEM. The reaction rates in the presence and absence of inhibitor were compared, and the percentage of residual enzyme activity due to the presence of test compounds was calculated.

[4] = biological target: T4, ifenprodil binding site of NMDA receptors containing NR2B subunits (Rattus norvegicus, UniProt P35439+Q00960); experiment: Radioligand binding, competition with [3H]ifenprodil; details: rat hippocampal membranes
T4 construct: we used a membrane preparation of rat cerebral hippocampus; from tissue; host or cells: rat hippocampal membranes
Description: as §1, §2, §3, §4

[5] = biological target: T5, tubulin (Sus scrofa, UniProt P02550+P02554); experiment: Tubulin polymerization to microtubules (absorbance at 355 nm); assay type: biochemical; details: read-out: (dA355/dt)max, % of control
T5 construct: purchased Cytoskeleton, Inc., Denver, USA
Description: The primary screening for the effect on tubulin polymerization in vitro was performed using a commercial tubulin in the presence of 0.1 mM of the carbazole–aminoadamantane conjugates. In blank probes, tubulin (40 μM) polymerization in the presence of 10% DMSO (as in the case of test probes) leads to absorbance increase after a rather long (80–120 minutes) lag period. […] The results are summarized in Table 3 as the maximum rate of absorbance increase for a tubulin- microtubules suspension normalized to the blank value.
The assembly of tubulin into microtubules was carried out using pure tubulin from HTS- Tubulin polymerization assay kit (Cytoskeleton, Inc., Denver, USA). […] The standard polymerization reaction contained 100 μl of a 4 mg/ml tubulin solution in 80 mM PIPES (pH 6.9), 0.5 mM EGTA, 2 mM MgCl2, and 1 mM GTP. […] The parameter Vmax = (dA355/dt)^max normalized to control probes (%) was used to compare the action of the compounds. Electron microscopic monitoring was carried out on Carl Zeiss Libra 120 Electron Microscope (Carl Zeiss Meditec AG, Jena, Germany) at 120 kV using negative countstaining.

[6] = biological target: T6, human erythrocyte AChE (Homo sapiens, UniProt P22303); experiment: biochemical; details: for inhibition at 20 µM: read-out: inhibition % at 20 μM, AChE
T6 construct: We used human erythrocyte AChE, equine serum BChE, and porcine liver CaE; purchased Sigma-Aldrich (Germany); host or cells: human erythrocyte
Description: as §5, §6

[7] = test system: SH-SY5Y neuroblastoma cells; experiment: Ionomycin-induced toxicity in SH-SY5Y neuroblastoma cells (MTT test); assay type: cell-based, human; details: 3 μM ionomycin, 24 hours
Description: The human neuroblastoma cell line SH-SY5Y was used for all experiments. The cells were cultured in a humidified, 5% (v/v) CO2-controlled environment at 37 °C, and grown in MEM/F12 culture medium supplemented with 15% fetal bovine serum (FBS), 100 U/mL penicillin, and […][90].
The cell viability was evaluated as the dehydrogenase activity with the 3-(4,5-dimethylthiazol-2-yl)-2,5-diphenyltetrazolium bromide (MTT) assay. Briefly, the SH-SY5Y cells were incubated with 0.1 and 1 μM of a test compound or an equal volume of the vehicle (<1% of the whole volume of the medium under the layer of cells) and 3 μM ionomycine for 24 h. The absorbance was measured at 570 nm using a Victor microplate reader (Perkin Elmer).

[8] = equine serum BChE, pH 7.5, 25 °C, 10 min pre-incubation, read-out: IC50 ± SEM, BChE

T3 sequence (P81908 whole entry): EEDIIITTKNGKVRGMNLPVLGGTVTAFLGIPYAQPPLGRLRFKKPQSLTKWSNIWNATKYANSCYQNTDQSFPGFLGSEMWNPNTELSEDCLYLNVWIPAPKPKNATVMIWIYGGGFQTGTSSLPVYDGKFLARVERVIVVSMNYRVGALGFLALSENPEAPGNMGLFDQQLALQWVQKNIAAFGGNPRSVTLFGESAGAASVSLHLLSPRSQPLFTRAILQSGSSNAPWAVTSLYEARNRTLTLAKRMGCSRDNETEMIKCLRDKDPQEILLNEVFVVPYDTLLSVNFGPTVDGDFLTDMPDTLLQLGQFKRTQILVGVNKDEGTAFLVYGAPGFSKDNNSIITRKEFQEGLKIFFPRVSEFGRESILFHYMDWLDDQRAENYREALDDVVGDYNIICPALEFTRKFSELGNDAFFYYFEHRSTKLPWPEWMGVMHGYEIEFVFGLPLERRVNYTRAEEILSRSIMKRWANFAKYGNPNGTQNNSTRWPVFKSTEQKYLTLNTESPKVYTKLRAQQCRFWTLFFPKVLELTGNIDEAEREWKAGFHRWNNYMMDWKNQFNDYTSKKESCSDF
T6 sequence (P22303 32-617 isoform P22303-2 limits assumed): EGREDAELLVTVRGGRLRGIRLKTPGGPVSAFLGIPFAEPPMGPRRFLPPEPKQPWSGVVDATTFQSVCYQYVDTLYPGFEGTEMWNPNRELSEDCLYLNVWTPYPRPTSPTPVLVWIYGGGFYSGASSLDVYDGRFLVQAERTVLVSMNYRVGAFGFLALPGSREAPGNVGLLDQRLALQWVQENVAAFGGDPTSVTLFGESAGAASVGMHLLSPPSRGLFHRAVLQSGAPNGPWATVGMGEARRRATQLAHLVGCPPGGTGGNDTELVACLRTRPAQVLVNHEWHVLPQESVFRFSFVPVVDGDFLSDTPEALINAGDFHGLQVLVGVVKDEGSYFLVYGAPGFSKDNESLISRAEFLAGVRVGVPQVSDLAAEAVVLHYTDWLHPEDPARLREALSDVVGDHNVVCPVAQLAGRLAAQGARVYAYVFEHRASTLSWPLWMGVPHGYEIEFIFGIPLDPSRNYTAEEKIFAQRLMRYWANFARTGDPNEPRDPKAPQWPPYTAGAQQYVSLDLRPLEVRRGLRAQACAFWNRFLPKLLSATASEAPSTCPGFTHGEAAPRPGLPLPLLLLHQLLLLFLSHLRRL
T5 sequence (P02550 whole entry): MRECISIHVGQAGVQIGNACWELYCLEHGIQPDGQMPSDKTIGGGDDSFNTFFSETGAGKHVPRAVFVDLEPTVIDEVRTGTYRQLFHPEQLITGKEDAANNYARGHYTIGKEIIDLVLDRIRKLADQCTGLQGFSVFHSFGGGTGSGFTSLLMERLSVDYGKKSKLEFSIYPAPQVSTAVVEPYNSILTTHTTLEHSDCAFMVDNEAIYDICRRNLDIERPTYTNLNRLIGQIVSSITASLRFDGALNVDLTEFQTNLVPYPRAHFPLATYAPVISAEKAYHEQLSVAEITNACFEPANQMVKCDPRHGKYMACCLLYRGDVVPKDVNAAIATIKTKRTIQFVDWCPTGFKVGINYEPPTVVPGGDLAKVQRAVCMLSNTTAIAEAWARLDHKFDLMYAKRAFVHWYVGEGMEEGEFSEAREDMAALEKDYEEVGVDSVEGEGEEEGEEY
T5 sequence (P02554 whole entry): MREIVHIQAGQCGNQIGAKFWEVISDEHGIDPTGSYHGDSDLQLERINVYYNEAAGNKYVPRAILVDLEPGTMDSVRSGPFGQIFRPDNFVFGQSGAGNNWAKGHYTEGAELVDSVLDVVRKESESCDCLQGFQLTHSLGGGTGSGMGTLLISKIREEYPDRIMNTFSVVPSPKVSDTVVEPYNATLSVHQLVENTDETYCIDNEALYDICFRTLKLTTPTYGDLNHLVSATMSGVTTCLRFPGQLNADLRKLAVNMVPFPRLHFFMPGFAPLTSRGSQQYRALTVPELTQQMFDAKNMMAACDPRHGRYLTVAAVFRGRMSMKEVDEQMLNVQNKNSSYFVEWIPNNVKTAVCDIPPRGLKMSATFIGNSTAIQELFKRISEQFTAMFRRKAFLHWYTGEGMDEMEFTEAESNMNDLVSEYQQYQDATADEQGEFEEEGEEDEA
T4 sequence (Q00960 27-1482, other chains not shown): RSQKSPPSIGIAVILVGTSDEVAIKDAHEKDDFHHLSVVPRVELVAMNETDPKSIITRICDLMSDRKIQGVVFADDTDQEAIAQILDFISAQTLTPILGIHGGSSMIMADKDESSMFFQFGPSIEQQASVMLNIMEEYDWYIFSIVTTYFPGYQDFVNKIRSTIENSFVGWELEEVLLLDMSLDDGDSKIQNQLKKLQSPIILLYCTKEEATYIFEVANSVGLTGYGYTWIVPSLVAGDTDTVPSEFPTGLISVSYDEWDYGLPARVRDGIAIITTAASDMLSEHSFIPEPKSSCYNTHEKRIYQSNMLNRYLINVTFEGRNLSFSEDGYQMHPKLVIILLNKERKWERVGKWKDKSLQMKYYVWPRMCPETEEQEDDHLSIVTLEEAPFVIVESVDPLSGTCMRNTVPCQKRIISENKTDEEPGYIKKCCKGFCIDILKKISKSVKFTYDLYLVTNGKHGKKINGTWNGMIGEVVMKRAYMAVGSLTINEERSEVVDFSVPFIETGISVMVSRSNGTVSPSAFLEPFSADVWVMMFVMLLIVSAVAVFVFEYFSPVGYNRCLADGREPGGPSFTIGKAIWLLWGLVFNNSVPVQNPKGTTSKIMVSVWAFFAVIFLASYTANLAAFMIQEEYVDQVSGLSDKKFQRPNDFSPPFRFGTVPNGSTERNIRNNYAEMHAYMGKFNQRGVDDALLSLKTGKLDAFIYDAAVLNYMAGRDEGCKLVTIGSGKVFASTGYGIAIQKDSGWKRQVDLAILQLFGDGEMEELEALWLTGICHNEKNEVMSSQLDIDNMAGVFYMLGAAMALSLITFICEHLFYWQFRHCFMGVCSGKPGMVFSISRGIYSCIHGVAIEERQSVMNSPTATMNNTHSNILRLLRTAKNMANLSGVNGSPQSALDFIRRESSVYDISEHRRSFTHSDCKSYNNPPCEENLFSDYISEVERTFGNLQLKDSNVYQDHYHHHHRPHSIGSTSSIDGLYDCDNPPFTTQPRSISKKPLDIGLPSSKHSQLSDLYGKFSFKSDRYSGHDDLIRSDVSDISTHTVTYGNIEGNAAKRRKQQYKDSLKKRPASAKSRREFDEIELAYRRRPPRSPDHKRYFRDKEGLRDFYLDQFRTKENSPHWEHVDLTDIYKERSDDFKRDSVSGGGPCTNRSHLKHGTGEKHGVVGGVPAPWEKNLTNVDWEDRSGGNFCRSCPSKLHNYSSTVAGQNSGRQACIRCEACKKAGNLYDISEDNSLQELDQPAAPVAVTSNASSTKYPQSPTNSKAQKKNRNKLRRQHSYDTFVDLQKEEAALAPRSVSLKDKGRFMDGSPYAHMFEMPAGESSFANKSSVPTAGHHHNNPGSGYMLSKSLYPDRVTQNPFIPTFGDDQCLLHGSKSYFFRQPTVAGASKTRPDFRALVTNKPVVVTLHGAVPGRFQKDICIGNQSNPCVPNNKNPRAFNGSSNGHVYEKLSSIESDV

| SMILES | inhibition at 20 µM [1] [%] | % of [3H]МК-801 blockade at 100 μM of compound [2] [%] | IC50 [3, 8] [µM] | % of [3H]ifenprodil blockade at 100 μM of compound [4] [%] | inhibition at 20 µM [6] [%] | inhibition at 20 µM [3] [%] | maximum polymerization rate, % of control at 100 µM [5] [%] | also measured |
| --- | --- | --- | --- | --- | --- | --- | --- | --- |
| NC12CC3CC(CC(C3)C1)C2 [Amantadine] | 3.2 | 57.2 ± 5.5 | > 20 | 44.6 ± 4.6 | – | – | – | inhibition at 20 µM ([3]; 20 μM of compound): 6.9%; remaining activity at 100 µM ([5]; at 100 μM of compound, 100% = vehicle control (10% DMSO)): 98 ± 16% |
| O=[N+]([O-])c1ccc(OP(=O)(O)Oc2ccc([N+](=O)[O-])cc2)cc1 [BNPP, Bis-4-nitrophenyl phosphate] | – | – | – | – | – | – | – | IC50 ([1]; porcine liver CaE, pH 8.0, 25 °C, read-out: IC50 ± SEM, CaE): 1.8 ± 0.11 µM |
| c1ccc2c(c1)[nH]c1ccccc12 [Carbazole] | 9.4 | – | – | – | 1.8 | 16.1 | 123 ± 12 | IC50 [6]: > 20 µM; IC50 [3]: > 20 µM |
| CC12CC3CC(C)(C1)CC(N)(C3)C2.Cl [Memantine, 1-amino-3,5-dimethyladamantane hydrochloride] | 3 | 100 | > 20 | 11.2 ± 1.1 | 1.3 | 13.7 | 89 ± 7 | IC50 ([6]; read-out: IC50 ± SEM, AChE): > 20 µM |
| CC(=O)O[C@H]1C(=O)[C@@]2(C)[C@H]([C@H](OC(=O)c3ccccc3)[C@]3(O)C[C@H](OC(=O)[C@H](O)[C@@H](NC(=O)c4ccccc4)c4ccccc4)C(C)=C1C3(C)C)[C@]1(OC(C)=O)CO[C@@H]1C[C@@H]2O [Paclitaxel] | – | – | – | – | – | – | – | remaining activity at 5 µM ([5]; 5 μM, 100% = vehicle control (10% DMSO)): 487 ± 32% |
| C[C@H](CCC(=O)O)C[C@H](C)C[C@H](C)C(=O)/C=C(\O)[C@H](C)C[C@H](C)C/C=C/[C@@H](C)[C@@H](O)[C@@H](C)[C@@H](O)C[C@@H]1CC[C@@](C)([C@H]2CC[C@@](C)([C@@H](C)O)O2)O1 [ionomycin] | – | – | – | – | – | – | – | reduction of neuroblastoma cell survival [7]: 36 ± 4% |
